Experimental data reported in ChEMBL document CHEMBL3870328, “Synthesis of novel Ral inhibitors: An in vitro and in vivo study” (Bioorg Med Chem Lett, 2016).
One block for each compound: values may come before it.

Tests used:
[1] = Cytotoxicity against human NCI-H2122 cells under anchorage-independent condition assessed as cell growth inhibition after 10 days by nitro blue tetrazolium-based microscopic analysis; assay type: functional; conditions: NCI-H2122, 240 h
[2] = Drug uptake in brain of mouse xenografted with human NCI-H2122 cells at 50 mg/kg, ip after 3 hrs by LC-MS/MS analysis; assay type: ADME, organism-based; conditions: read-out: Drug uptake
[3] = Drug uptake in heart of mouse xenografted with human NCI-H2122 cells at 50 mg/kg, ip after 3 hrs by LC-MS/MS analysis; assay type: ADME, organism-based; conditions: read-out: Drug uptake
[4] = Drug uptake in kidney of mouse xenografted with human NCI-H2122 cells at 50 mg/kg, ip after 3 hrs by LC-MS/MS analysis; assay type: ADME, organism-based; conditions: read-out: Drug uptake
[5] = Drug uptake in liver of mouse xenografted with human NCI-H2122 cells at 50 mg/kg, ip after 3 hrs by LC-MS/MS analysis; assay type: ADME, organism-based; conditions: read-out: Drug uptake
[6] = Drug uptake in lungs of mouse xenografted with human NCI-H2122 cells at 50 mg/kg, ip after 3 hrs by LC-MS/MS analysis; assay type: ADME, organism-based; conditions: lung, read-out: Drug uptake
[7] = Drug uptake in tumor of mouse xenografted with human NCI-H2122 cells at 50 mg/kg, ip after 3 hrs by LC-MS/MS analysis; assay type: ADME, organism-based, Neoplasm; conditions: read-out: Drug uptake
[8] = Plasma concentration in mouse xenografted with human NCI-H2122 cells at 50 mg/kg, ip after 3 hrs by LC-MS/MS analysis; assay type: ADME, organism-based
[9] = Drug metabolism in CD1 mouse liver microsomes assessed as CYP450-mediated M6 metabolite formation at 16.7 uM up to 60 mins in presence of NADPH by LC-MS/MS analysis; assay type: ADME; conditions: 1 h
[10] = Drug metabolism in CD1 mouse liver microsomes assessed as CYP450-mediated M7 metabolite formation at 16.7 uM up to 60 mins in presence of NADPH by LC-MS/MS analysis; assay type: ADME; conditions: 1 h
[11] = Drug metabolism in mouse xenografted with human NCI-H2122 cells assessed as M6 metabolite formation in plasma at 50 mg/kg, ip after 3 hrs by LC-MS/MS analysis; assay type: ADME, organism-based; conditions: in vivo
[12] = Drug metabolism in mouse xenografted with human NCI-H2122 cells assessed as M6 metabolite formation in tumor at 50 mg/kg, ip after 3 hrs by LC-MS/MS analysis; assay type: ADME, organism-based, Neoplasm; conditions: in vivo
[13] = Drug metabolism in mouse xenografted with human NCI-H2122 cells assessed as M6 metabolite formation in kidney at 50 mg/kg, ip after 3 hrs by LC-MS/MS analysis; assay type: ADME, organism-based; conditions: in vivo
[14] = Drug metabolism in mouse xenografted with human NCI-H2122 cells assessed as M6 metabolite formation in liver at 50 mg/kg, ip after 3 hrs by LC-MS/MS analysis; assay type: ADME, organism-based; conditions: in vivo
[15] = Drug metabolism in mouse xenografted with human NCI-H2122 cells assessed as M6 metabolite formation in lungs at 50 mg/kg, ip after 3 hrs by LC-MS/MS analysis; assay type: ADME, organism-based, Lung; conditions: in vivo
[16] = Drug metabolism in mouse xenografted with human NCI-H2122 cells assessed as M6 metabolite formation in heart at 50 mg/kg, ip after 3 hrs by LC-MS/MS analysis; assay type: ADME, organism-based; conditions: in vivo
[17] = Drug metabolism in mouse xenografted with human NCI-H2122 cells assessed as M7 metabolite formation in plasma at 50 mg/kg, ip after 3 hrs by LC-MS/MS analysis; assay type: ADME, organism-based; conditions: in vivo
[18] = Drug metabolism in mouse xenografted with human NCI-H2122 cells assessed as M7 metabolite formation in brain at 50 mg/kg, ip after 3 hrs by LC-MS/MS analysis; assay type: ADME, organism-based; conditions: in vivo
[19] = Drug metabolism in mouse xenografted with human NCI-H2122 cells assessed as M7 metabolite formation in tumor at 50 mg/kg, ip after 3 hrs by LC-MS/MS analysis; assay type: ADME, organism-based, Neoplasm; conditions: in vivo
[20] = Drug metabolism in mouse xenografted with human NCI-H2122 cells assessed as M7 metabolite formation in kidney at 50 mg/kg, ip after 3 hrs by LC-MS/MS analysis; assay type: ADME, organism-based; conditions: in vivo
[21] = Drug metabolism in mouse xenografted with human NCI-H2122 cells assessed as M7 metabolite formation in liver at 50 mg/kg, ip after 3 hrs by LC-MS/MS analysis; assay type: ADME, organism-based; conditions: in vivo
[22] = Drug metabolism in mouse xenografted with human NCI-H2122 cells assessed as M7 metabolite formation in lungs at 50 mg/kg, ip after 3 hrs by LC-MS/MS analysis; assay type: ADME, organism-based, Lung; conditions: in vivo
[23] = Drug metabolism in mouse xenografted with human NCI-H2122 cells assessed as M7 metabolite formation in heart at 50 mg/kg, ip after 3 hrs by LC-MS/MS analysis; assay type: ADME, organism-based; conditions: in vivo
[24] = Drug level in CD1 mouse liver microsomes treated with 6-amino-4-(2,5-dimethoxyphenyl)-3-(naphthalen-2-yl)-1,4-dihydropyrano[2,3-c]pyrazole-5-carbonitrile at 16.7 uM assessed as CYP450-mediated compound formation in presence of NADPH by LC-MS/MS analysis; assay type: ADME

Compound: Cn1nc(-c2ccccc2)c2c1OC(N)=C(C#N)C2c1ccc(F)cc1 (centres undefined)
IC50 [1]: > 10 µM

Compound: Cc1nn(C)c2c1C(c1ccc(C#N)cc1)C(C#N)=C(N)O2 (centres undefined)
IC50 [1]: 5.6 µM

Compound: Cc1nn(C)c2c1C(c1cccc(Br)n1)C(C#N)=C(N)O2 (centres undefined)
IC50 [1]: 2.4 µM

Compound: Cn1nc(-c2ccccc2)c2c1OC(N)=C(C#N)C2c1ccc2c(c1)OCCO2 (centres undefined)
IC50 [1]: 8.4 µM

Compound: N#CC1=C(N)Oc2c(c(-c3ccccc3)nn2-c2ccccc2)C1c1ccccc1 (centres undefined)
IC50 [1]: 4.1 µM

Compound: Cn1nc(-c2ccccc2)c2c1OC(N)=C(C#N)C2c1ccncc1 (centres undefined)
IC50 [1]: 5.2 µM

Compound: Cc1nn(C)c2c1C(c1ccncc1)C(C#N)=C(N)O2 (centres undefined)
IC50 [1]: 4.1 µM

Compound: COc1ccc(-c2nn(C)c3c2C(c2ccc(OC)cc2)C(C#N)=C(N)O3)cc1 (centres undefined)
IC50 [1]: > 10 µM

Compound: Cn1nc(-c2ccccc2)c2c1OC(N)=C(C#N)C2c1cccnc1 (centres undefined)
IC50 [1]: > 10 µM

Compound: Cn1nc(-c2ccccc2)c2c1OC(N)=C(C#N)C2c1cccc(Br)n1 (centres undefined)
IC50 [1]: 1.7 µM

Compound: COc1ccc(C2C(C#N)=C(N)Oc3c2c(-c2ccccc2)nn3C)cc1F (centres undefined)
IC50 [1]: > 10 µM

concentration at 3 h [2]: 210 ng/g
concentration at 3 h [3]: 3540 ng/g
concentration at 3 h [4]: 5730 ng/g
concentration at 3 h [5]: 11500 ng/g
concentration at 3 h [6]: 3180 ng/g
concentration at 3 h [7]: 4170 ng/g
concentration at 3 h [8]: 3950 ng/mL
Drug metabolism [9]: Metabolite_Detected
Drug metabolism [10]: Metabolite_Detected
Drug metabolism [11]: 147.5 ng/mL
Drug metabolism [12]: 145.5 ng/g
Drug metabolism [13]: 350.6 ng/g
Drug metabolism [14]: 2531.5 ng/g
Drug metabolism [15]: 47.7 ng/g
Drug metabolism [16]: 52.8 ng/g
Drug metabolism [17]: 656.2 ng/mL
Drug metabolism [18]: 17 ng/g
Drug metabolism [19]: 413 ng/g
Drug metabolism [20]: 839.9 ng/g
Drug metabolism [21]: 2822.9 ng/g
Drug metabolism [22]: 487.4 ng/g
Drug metabolism [23]: 472.6 ng/g
Compound: CCCCC(=O)C1c2ccccc2NC2=C(C(=O)CCC2)C1c1ccccc1Cl (centres undefined)

Compound: Cc1nn(C)c2c1C(c1ccc(-n3ccnc3)cc1)C(C#N)=C(N)O2 (centres undefined)
IC50 [1]: 1.7 µM

Compound: Cc1nn(C)c2c1C(c1ccccc1)C(C#N)=C(N)O2 (centres undefined)
IC50 [1]: 9.1 µM

Compound: Cc1nn(C)c2c1C(c1cccnc1)C(C#N)=C(N)O2 (centres undefined)
IC50 [1]: 8.8 µM

Compound: Cc1nn(-c2ccccc2)c2c1C(c1ccccc1)C(C#N)=C(N)O2 (centres undefined)
IC50 [1]: 2.7 µM

Compound: COc1ccc(C2C(C#N)=C(N)Oc3c2c(C)nn3C)cc1F (centres undefined)
IC50 [1]: 5.8 µM

Drug metabolism [24]: Metabolite_Detected
Compound: N#CC1=C(N)Oc2[nH]nc(-c3ccc4ccccc4c3)c2C1c1cc(O)ccc1O (centres undefined)

Compound: COc1ccc(-c2nn(C)c3c2C(c2ccc(F)cc2)C(C#N)=C(N)O3)cc1OC (centres undefined)
IC50 [1]: > 10 µM

Compound: Cc1nn(C)c2c1C(c1ccc(C(C)C)cc1)C(C#N)=C(N)O2 (centres undefined)
IC50 [1]: 4 µM

Compound: Cc1nn(C)c2c1C(c1ccc(OC(F)(F)F)cc1)C(C#N)=C(N)O2 (centres undefined)
IC50 [1]: 2.9 µM

Compound: COc1ccc(-c2nn(-c3ccccc3)c3c2C(c2ccc(OC)cc2)C(C#N)=C(N)O3)cc1 (centres undefined)
IC50 [1]: 1.1 µM

Compound: Cn1nc(-c2ccccc2)c2c1OC(N)=C(C#N)C2c1ccc(C#N)cc1 (centres undefined)
IC50 [1]: 5.2 µM
